pIC50, pKd: −log10 of the molar value.
Columns and labels:
FGFR1 [1] = molecular target: T1, FGFR1 (Homo sapiens, UniProt P11362, C488A/C584S); assay: ESI-CIU-IMS-MS collision-induced unfolding of FGFR1 after incubation with inhibitor; conditions: for IMS-MS Drift Time of unfolded conformer / Intensity vs base peak (5.5 ms) of the unfolded conformer at ca 7.6 ms: 11+ FGFR1 ions
T1 construct: made in house; host or cells: E. coli
Description: FGFR1 (2 μM) and inhibitors (8 μM) were incubated separately in ammonium acetate (100 mM) for 1 h at room temperature prior to analysis. A Synapt G2‐S travelling‐wave ion mobility spectrometry ‐ mass spectrometer equipped with a nano‐ESI source was used for all sample analyses (Waters Corp., Manchester, UK). Samples were analysed by nano‐ESI from in‐house fabricated gold–palladium‐coated borosilicate capillaries assembled using a P‐97 micropipette puller (Sutter Instrument Co., Novato, CA, USA) and a sputter coater (Polaron SC7620; Quorum Technologies Ltd, Kent, UK). The following instrument parameters were set: capillary voltage 1.8 kV, cone voltage 30 V, source temperature 100°C, backing pressure 9.3 mbar, travelling‐wave height 40 V, travelling‐wave speed 500 m/s, IMS He gas flow rate 150 mL/min, IMS N2 gas flow rate 50 mL/min. For the collision‐induced unfolding (CIU) experiments, the trap voltage was increased to 21 V or 24 V and the transfer voltage was maintained at 4 V. Data were processed by use of the MassLynx (version 4.1) and Driftscope software supplied with the mass spectrometer. The m/z scale was calibrated using a separate introduction of aqueous CsI at 1 mg/mL.
To see if type I and type II inhibitors affect the conformational profile of FGFR1, the protein was incubated with each inhibitor separately prior to nano‐ESI‐CIU‐IMS‐MS analysis. All charge‐state ions arising from the FGFR1–ligand complexes (selected individually by the initial quadrupole analyser) were subjected to CIU‐induced unfolding in the trap prior to IMS separation.
During these analyses, the trap energy was increased and protein unfolding was monitored by examining the drift times of the protein ions during their transit through the IMS cell.

[2] = molecular target: T2, Human FGFR1 consisting of residues 457–765 with C488A and C584S mutations (Homo sapiens, UniProt P11362, C488A/C584S); assay: Isothermal titration calorimetry (ITC) of inhibitor binding to FGFR1; conditions: 25°C, type I TKIs
T2 construct: made in house; host or cells: E. coli
Description: ITC was carried out using a Microcal ITC200 instrument (GE Healthcare Biosciences, Amersham, UK). FGFR1 was dialysed against the experimental buffer (20 mM Tris/HCl, 100 mM NaCl and 5 mM DTT pH 7.8) prior to titration with inhibitor. Inhibitors were dissolved in DMSO, and experimental buffer DMSO concentration was matched. Titrations were performed at 25°C with 2 μL injections of inhibitor (200 μM) every 180 s into the cell containing FGFR1 (20 μM) with stirring at 1000 rpm. Results were analysed in Origin (OriginLab, Northampton, MA, USA) and fitted using a one‐site binding model.

FGFR1 kinase domain = molecular target: T3, FGFR1 kinase domain (Homo sapiens, UniProt P11362, C488A/C584S); assay: X-ray crystallography of FGFR1–ligand complexes (DFG loop status); type: binding; conditions: co-crystal structure
T3 construct: Human FGFR1 consisting of residues 457–765 with C488A and C584S mutations; made in house; host or cells: E. coli
Description: Data were integrated and scaled using XDS[23] and SCALA[24] as implemented within the autoPROC software package.[25] Data reduction and structure solution by molecular replacement were carried out using programs from the CCP4 software suite.[26] […] The protein–inhibitor complex model was refined using Buster,[28] interspersed with rounds of manual model building in Coot.[29]

FGFR1 [3] = molecular target: T1, FGFR1; assay: Microscale thermophoresis (MST), label-free; type: binding; conditions: type I TKI; MST per b30 and Figure S5 (Figure 2 legend says ITC), 25°C
Description: Thermophoresis was used to measure the binding interactions between FGFR1 and compounds. The MST measurements were performed using a Monolith NT.LabelFree instrument (NanoTemper Technologies GmbH, Munich, Germany). In this instrument, an infrared laser beam and light (fluorescence excitation and emission) was coupled with a dichroic mirror and focused on the sample. When the IR‐laser was on, it heated a small area of the sample and created a temperature gradient. The total fluorescence of the focused area was measured when the IR‐laser was off (Fcold) and on (Fhot). The capillaries were filled with the sample (less than 5 μL was required for each capillary). The following MST settings were used: LED power 70%, MST laser power 40%, fluorescence before (5 s), MST on (30 s), fluorescence after (3 s). […] After the capillary scan thermophoresis FGFR1 was measured for 30 s in the presence of the varied concentrations of compound. Fnorm = Fhot/Fcold was analysed and plotted by NT Analysis software (NanoTemper Technologies GmbH). Fraction bound = (Fnorm – Fnorm [unbound])/(Fnorm (bound) – Fnorm (unbound)) was calculated and the binding data were fitted to a Hill function (n = 1) using the instrument analysis software. To eliminate artifacts caused by labelling or modifying proteins, the fluorescence of tryptophan residues was used to monitor the local protein concentration. […]

FGFR1 [4] = system: FGFR1; parameters: method as in PMID 22141913; conditions: cited from earlier work
FGFR1 [5] = conditions: read-out: in vitro IC50 against FGFR1; cited from earlier work

T1 sequence (P11362 with tags, fused parts or gaps C488A/C584S): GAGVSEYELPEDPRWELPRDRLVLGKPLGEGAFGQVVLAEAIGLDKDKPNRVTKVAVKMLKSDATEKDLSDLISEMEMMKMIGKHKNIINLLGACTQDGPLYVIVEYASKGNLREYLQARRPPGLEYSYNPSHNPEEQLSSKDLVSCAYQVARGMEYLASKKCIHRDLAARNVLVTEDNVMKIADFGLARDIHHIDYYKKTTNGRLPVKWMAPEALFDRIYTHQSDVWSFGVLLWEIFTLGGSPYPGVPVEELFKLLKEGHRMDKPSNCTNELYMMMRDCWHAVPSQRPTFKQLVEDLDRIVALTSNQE
T3 sequence (P11362 457-765 C488A/C584S): as the sequence (P11362 with tags, fused parts or gaps C488A/C584S) above, with G1L counted along it
T2 sequence (P11362 with tags, fused parts or gaps C488A/C584S): as the sequence (P11362 with tags, fused parts or gaps C488A/C584S) above

Row | Compound | IMS-MS Drift Time of unfolded conformer (FGFR1 [1]; 21 V Trap) | Intensity vs base peak (5.5 ms) of the unfolded conformer at ca 7.6 ms (FGFR1 [1]; 21 V Trap) | IMS-MS Drift Time of unfolded conformer (FGFR1 [1]; 24 V Trap) | Intensity vs base peak (5.5 ms) of the unfolded conformer at ca 7.6 ms (FGFR1 [1]; 24 V Trap) | Kd for FGFR1 [2] | FGFR1 kinase conformation bound or induced (DFG motif orientation) (FGFR1 kinase domain) | pKd (FGFR1 [3]) | cellular activity against FGFR1 (FGFR1 [4]) | pIC50 (FGFR1 [5]) | Inhibitor class assigned from CIU profile (FGFR1 [1]; ESI-IMS-MS CIU profile)
1 | CNC(=O)c1ccccc1Nc1cc(Nc2cn(C)nc2C)ncc1C(F)(F)F [Compound E] | 7.5 ms | 24.2% | 7.5 ms | 45.8% | – | – | – | – | – | –
2 | COc1ccc(C(=O)Nc2cc(-c3ccccc3)[nH]n2)cc1OC [JK-P3] | 7.5 ms | 30.8% | 7.5 ms | 45.8% | – | DFG in | 4.60 | cellular activity against FGFR1 | – | –
3 | CN1CCN(c2ccc(NC(=O)c3n[nH]c4ccccc34)cc2)CC1 [JK-P5] | 7.5 ms | 22.1% | 7.5 ms | 32.2% | – | DFG in | 6.84 | cellular activity against FGFR1 | – | –
4 | Cc1ccc(F)c(NC(=O)Nc2ccc(-c3cccc4[nH]nc(N)c34)cc2)c1 [Linifanib] | 7.5 ms | 55.0% | 7.7 ms | 92.8% | – | DFG out | – | – | – | –
5 | Cc1ccc(C(=O)Nc2ccc(CN3CCN(C)CC3)c(C(F)(F)F)c2)cc1C#Cc1cnc2cccnn12 [Ponatinib] | 7.9 ms | 46.7% | 7.7 ms | 71.2% | – | – | – | – | – | –
6 | CNC(=O)c1cc(Oc2ccc(NC(=O)Nc3ccc(Cl)c(C(F)(F)F)c3)cc2)ccn1 [Sorafenib] | 7.5 ms | – | 7.5 ms | 66.1% | – | – | – | – | 6.24 | type II

Further lines, with some results ahead:

Row | IMS-MS Drift Time of unfolded conformer (FGFR1 [1]; 21 V Trap) | Intensity vs base peak (5.5 ms) of the unfolded conformer at ca 7.6 ms (FGFR1 [1]; 21 V Trap) | IMS-MS Drift Time of unfolded conformer (FGFR1 [1]; 24 V Trap) | Intensity vs base peak (5.5 ms) of the unfolded conformer at ca 7.6 ms (FGFR1 [1]; 24 V Trap) | Kd for FGFR1 [2] | FGFR1 kinase conformation bound or induced (DFG motif orientation) (FGFR1 kinase domain) | pKd (FGFR1 [3]) | Compound | cellular activity against FGFR1 (FGFR1 [4]) | pIC50 (FGFR1 [5]) | Inhibitor class assigned from CIU profile (FGFR1 [1]; ESI-IMS-MS CIU profile)
7 | 7.5 ms | 29.2% | 7.7 ms | 50.8% | – | – | – | CC(C)Oc1cc(Nc2ccnc(NCc3cc(C4CC4)no3)n2)n[nH]1 [Compound B] | – | – | –
8 | 7.5 ms | 25.0% | 7.5 ms | 40.7% | – | – | – | Cc1cc(Nc2nc(NCCc3cccnc3)ncc2Br)n[nH]1 [Compound C] | – | – | –
9 | 7.5 ms | 27.5% | 7.7 ms | 43.2% | 36 nM | – | – | CCCc1cc(Nc2nc(NCc3ccccn3)ncc2Br)n[nH]1 [Compound D] | – | – | –

— paper PMC12062780, “Validation of ion mobility spectrometry ‐ mass spectrometry as a screening tool to identify type II kinase inhibitors of FGFR1 kinase” (Rapid Communications in Mass Spectrometry, 2021)
